Results: ChEMBL document CHEMBL1130217, “Use of a pharmacophore model for the design of EGF-R tyrosine kinase inhibitors: 4-(phenylamino)pyrazolo[3,4-d]pyrimidines” (J Med Chem, 1997)
Values joined by “and” are separate entries in the source; they are usually repeats but may differ in a detail not shown here. Equal entries are not always repeated.

Legend:
[1] = biological target: Cyclin-dependent kinase 1 (Homo sapiens, UniProt P06493); test: Inhibitory activity against CDK1 Ser/Thr kinase
[2] = biological target: T1, Epidermal growth factor receptor (Homo sapiens, UniProt P00533); test: Inhibition of EGF-stimulated tyrosine phosphorylation in A431 cells.
[3] = biological target: T2, Proto-oncogene tyrosine-protein kinase Src (Homo sapiens, UniProt P12931); test: Inhibitory activity against c-Src tyrosine kinase
[4] = biological target: Platelet-derived growth factor receptor (Homo sapiens, UniProt P09619+P16234); test: Inhibition of PDGF stimulated tyrosine phosphorylation in BALB/c3t3 cells.
[5] = tested on: Balb/MK; test: Inhibition of proliferation of EGF-dependent BALB/MK cells.; format: functional, cell-based; conditions: Mus musculus
[6] = biological target: T1, Epidermal growth factor receptor
Description: Inhibitory activity against epidermal growth factor receptor tyrosine kinase.

[7] = biological target: Protein kinase C alpha type (Homo sapiens, UniProt P17252); test: Inhibitory activity against protein kinase C alpha […] kinase.
[8] = biological target: Tyrosine-protein kinase ABL1 (Homo sapiens, UniProt P00519)
Description: Inhibitory activity against v-Abl tyrosine kinase

[9] = biological target: T2, Proto-oncogene tyrosine-protein kinase Src; test: Inhibition of c-Src tyrosine kinase
[10] = tested on: A-431; test: In vivo activity against A431 xenografts in mice at 50 mg/kg ip dose; format: functional; conditions: route intraperitoneal
[11] = tested on: A-431; test: In vivo activity against A431 xenografts in mice at 12.5 mg/kg peroral dose; format: functional; conditions: route oral
[12] = tested on: A-431; test: In vivo activity against A431 xenografts in mice at 12.5 mg/kg ip dose; format: functional; conditions: route intraperitoneal
[13] = tested on: Balb/MK; test: Inhibition of proliferation of EGF-dependent BALB/MK cells; format: functional, cell-based; conditions: Mus musculus

T1 sequence (P00533 whole entry): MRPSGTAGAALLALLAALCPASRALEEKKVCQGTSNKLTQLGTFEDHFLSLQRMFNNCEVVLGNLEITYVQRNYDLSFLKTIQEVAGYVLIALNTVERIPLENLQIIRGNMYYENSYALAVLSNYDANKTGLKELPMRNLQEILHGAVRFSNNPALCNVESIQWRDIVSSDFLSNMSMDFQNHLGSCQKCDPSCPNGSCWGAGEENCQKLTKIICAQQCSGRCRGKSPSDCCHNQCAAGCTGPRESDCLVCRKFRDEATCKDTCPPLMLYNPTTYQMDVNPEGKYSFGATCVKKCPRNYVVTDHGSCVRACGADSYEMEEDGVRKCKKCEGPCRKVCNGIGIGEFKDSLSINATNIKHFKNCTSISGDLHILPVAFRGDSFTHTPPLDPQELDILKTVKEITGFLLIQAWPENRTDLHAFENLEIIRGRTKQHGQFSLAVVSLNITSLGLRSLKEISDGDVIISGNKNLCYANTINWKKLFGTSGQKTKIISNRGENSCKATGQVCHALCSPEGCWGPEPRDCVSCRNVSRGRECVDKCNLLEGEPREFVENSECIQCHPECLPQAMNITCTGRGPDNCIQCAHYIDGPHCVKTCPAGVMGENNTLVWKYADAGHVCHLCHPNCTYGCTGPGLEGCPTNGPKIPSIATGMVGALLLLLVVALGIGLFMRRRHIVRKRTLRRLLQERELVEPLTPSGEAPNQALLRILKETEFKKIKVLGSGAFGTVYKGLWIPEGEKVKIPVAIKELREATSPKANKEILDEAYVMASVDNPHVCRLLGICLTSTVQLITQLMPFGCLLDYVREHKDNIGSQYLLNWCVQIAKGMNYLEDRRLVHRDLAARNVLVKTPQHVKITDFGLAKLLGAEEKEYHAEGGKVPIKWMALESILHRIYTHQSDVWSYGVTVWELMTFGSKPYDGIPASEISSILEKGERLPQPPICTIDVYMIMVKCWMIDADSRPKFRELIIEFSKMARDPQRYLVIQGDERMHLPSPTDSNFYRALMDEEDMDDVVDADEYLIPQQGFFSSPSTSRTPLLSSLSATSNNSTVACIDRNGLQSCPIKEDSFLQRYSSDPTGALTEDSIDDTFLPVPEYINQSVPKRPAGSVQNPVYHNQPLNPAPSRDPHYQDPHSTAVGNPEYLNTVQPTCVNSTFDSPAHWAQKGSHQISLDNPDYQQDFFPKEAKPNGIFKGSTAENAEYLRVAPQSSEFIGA
Sequence of Cyclin-dependent kinase 1 (P06493 whole entry): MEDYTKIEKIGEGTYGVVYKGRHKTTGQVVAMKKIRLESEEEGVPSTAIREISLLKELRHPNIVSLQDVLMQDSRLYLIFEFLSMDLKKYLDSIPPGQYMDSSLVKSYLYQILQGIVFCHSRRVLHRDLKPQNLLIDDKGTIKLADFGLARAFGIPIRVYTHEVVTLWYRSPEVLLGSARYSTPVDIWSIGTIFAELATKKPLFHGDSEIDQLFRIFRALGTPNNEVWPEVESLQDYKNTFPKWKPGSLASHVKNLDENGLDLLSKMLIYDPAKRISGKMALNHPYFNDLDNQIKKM
T2 sequence (P12931 2-536 limits assumed): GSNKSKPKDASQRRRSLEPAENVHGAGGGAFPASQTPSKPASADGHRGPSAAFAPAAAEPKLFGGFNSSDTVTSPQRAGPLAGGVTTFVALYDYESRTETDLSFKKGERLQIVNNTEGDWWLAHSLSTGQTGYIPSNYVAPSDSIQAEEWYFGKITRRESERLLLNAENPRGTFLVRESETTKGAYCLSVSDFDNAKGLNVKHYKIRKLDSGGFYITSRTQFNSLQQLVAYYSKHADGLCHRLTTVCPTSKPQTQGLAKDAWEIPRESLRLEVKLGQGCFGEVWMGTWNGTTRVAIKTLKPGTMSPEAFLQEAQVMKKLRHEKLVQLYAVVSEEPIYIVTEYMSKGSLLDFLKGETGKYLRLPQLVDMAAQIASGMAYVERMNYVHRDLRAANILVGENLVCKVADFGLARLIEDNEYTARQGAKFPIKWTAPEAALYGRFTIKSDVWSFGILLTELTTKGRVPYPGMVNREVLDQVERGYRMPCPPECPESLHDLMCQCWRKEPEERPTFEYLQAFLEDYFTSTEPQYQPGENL
Sequence of Tyrosine-protein kinase ABL1 (P00519 whole entry, looked up): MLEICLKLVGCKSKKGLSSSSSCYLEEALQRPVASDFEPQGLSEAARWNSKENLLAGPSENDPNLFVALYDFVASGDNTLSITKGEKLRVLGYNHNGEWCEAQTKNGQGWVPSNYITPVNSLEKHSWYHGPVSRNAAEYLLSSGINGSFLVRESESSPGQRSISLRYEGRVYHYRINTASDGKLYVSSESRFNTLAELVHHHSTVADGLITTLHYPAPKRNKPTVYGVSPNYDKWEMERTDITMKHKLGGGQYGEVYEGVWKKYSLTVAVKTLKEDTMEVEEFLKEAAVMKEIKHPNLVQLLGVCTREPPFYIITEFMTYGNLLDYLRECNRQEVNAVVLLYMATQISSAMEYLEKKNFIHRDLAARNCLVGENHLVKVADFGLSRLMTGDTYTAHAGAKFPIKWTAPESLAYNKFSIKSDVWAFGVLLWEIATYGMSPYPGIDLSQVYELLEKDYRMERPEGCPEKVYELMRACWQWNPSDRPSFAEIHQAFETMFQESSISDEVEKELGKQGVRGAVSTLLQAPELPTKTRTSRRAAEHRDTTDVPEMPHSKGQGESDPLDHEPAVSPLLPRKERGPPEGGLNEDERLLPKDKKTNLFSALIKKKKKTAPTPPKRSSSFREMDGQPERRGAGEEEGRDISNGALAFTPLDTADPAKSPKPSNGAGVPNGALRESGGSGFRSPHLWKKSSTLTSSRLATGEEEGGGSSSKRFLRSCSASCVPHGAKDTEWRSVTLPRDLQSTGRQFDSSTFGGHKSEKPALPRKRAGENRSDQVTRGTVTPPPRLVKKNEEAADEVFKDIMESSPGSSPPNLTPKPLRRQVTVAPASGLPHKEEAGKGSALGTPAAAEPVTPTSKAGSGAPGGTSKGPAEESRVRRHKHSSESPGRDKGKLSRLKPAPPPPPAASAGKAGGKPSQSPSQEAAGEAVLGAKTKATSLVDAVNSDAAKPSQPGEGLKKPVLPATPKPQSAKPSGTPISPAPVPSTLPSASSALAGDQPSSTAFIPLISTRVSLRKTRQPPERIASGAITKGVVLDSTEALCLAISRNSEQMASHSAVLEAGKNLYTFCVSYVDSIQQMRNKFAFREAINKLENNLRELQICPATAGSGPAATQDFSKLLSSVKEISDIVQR

IC50 [1] [nM] | IC50 [2] [nM] | IC50 [3] [nM] | IC50 [4] [nM] | IC50 [6] [nM] | IC50 [7] [nM] | IC50 [8] [nM] | Compound | IC50 [5] [nM] | IC50 [9] [nM] | T/C [10] | T/C [11] [%] | T/C [12] [%] | IC50 [13] [nM]
260 | 500 | 8550 | > 10000 | 6 | 1850 | 240 | Oc1ccc(-c2[nH]nc3ncnc(Nc4cccc(Cl)c4)c23)cc1 | 560 |  |  |  |  | 
> 100000 | > 100000 | 9800 | > 10000 | 270 | > 10000 | > 10000 | O=[N+]([O-])c1cccc(-c2[nH]nc3ncnc(Nc4cccc(Cl)c4)c23)c1 | > 50000 |  |  |  |  | 
 | < 800 |  | > 10000 | 130 | 3800 | 1360 | Clc1cccc(Nc2[nH]nc3ncnc(Nc4cccc(Br)c4)c23)c1 | 1430 | > 10000 |  |  |  | 
 |  |  |  | 450000 |  |  | Cc1c(C)n(C)c2ncnc(Nc3cccc(Cl)c3)c12 |  |  |  |  |  | 
57000 | > 100000 | > 10000 | > 10000 | > 10000 | > 10000 | > 10000 | CC(C)(C)OC(=O)Nc1ccc(Nc2[nH]nc3ncnc(Nc4cccc(Cl)c4)c23)cc1 | > 10000 |  |  |  |  | 
4300 | 800 | 7800 | > 10000 | 8 | 4700 | 3400 | COc1cccc(Nc2[nH]nc3ncnc(Nc4cccc(Cl)c4)c23)c1 | 950 |  |  |  |  | 
 | 1000 | 2250 | > 10000 | 84 | 7800 | 1360 | Clc1cccc(Nc2[nH]nc3ncnc(Nc4ccccc4)c23)c1 | 2560 |  |  |  |  | 
7400 | 3 | > 10000 | > 10000 | 7 | 10000 | 6600 | Clc1cccc(Nc2[nH]cnc3nnc(NCc4ccccc4)c2-3)c1 | 300 |  |  |  |  | 
 |  |  | > 10000 | 800 | > 100000 | > 10000 | Nc1ncnc2c1c(-c1ccccc1)nn2-c1ccccc1 |  |  |  |  |  | > 50000
5800 | 1500 | > 10000 | 10000 | 30 | 19000 | > 10000 | COc1ccc(Nc2[nH]nc3ncnc(Nc4cccc(Cl)c4)c23)cc1 | 1030 |  |  |  |  | 
3100 | 200 | > 10000 | > 10000 | 8 | > 100000 | 3500 | COc1cccc(CNc2[nH]nc3ncnc(Nc4cccc(Cl)c4)c23)c1 | 810 |  |  |  |  | 
100000 |  | 1400 |  |  | > 100000 |  | COc1cc2ncnc(Nc3cccc(Br)c3)c2cc1OC | 200 |  |  |  |  | 
 |  |  |  | 2710 |  |  | Cc1c(C)n(-c2ccccc2)c2ncnc(N)c12 |  |  |  |  |  | 
> 1000 |  | 2400 | > 10000 |  | > 1000 | 1180 | Nc1ccc(Nc2[nH]nc3ncnc(Nc4cccc(Cl)c4)c23)cc1 |  |  |  |  |  | 
350 | 1500 | > 10000 | 10000 | 29 | 2900 | > 10000 | CN(C)c1ccc(Nc2[nH]nc3ncnc(Nc4cccc(Cl)c4)c23)cc1 | 1550 |  |  |  |  | 
680 | 800 | > 10000 | > 10000 | 5 | 1500 | 3090 | Nc1cccc(-c2[nH]nc3ncnc(Nc4cccc(Cl)c4)c23)c1 | 940 |  |  |  |  | 
> 100000 | 1500 | > 10000 | > 10000 | 96 | > 10000 | 16500 | COc1ccc(-c2[nH]nc3ncnc(Nc4cccc(Cl)c4)c23)cc1 | 1600 |  |  |  |  | 
16000 | 1500 | 2090 | > 10000 | 26 | > 10000 | > 10000 | Clc1cccc(CNc2[nH]nc3ncnc(Nc4cccc(Cl)c4)c23)c1 | 3190 |  |  |  |  | 
 | > 100000 | > 10000 | > 10000 | 24200 | > 100000 | > 10000 | Clc1cccc(Nc2[nH]nc3ncnc(Oc4cccc(Cl)c4)c23)c1 | > 50000 |  |  |  |  | 
 | 1500 | 9800 | > 10000 | 270 | > 10000 |  | CC(C)(C)OC(=O)Nc1ccc(-c2[nH]nc3ncnc(Nc4cccc(Cl)c4)c23)cc1 | 4300 |  |  |  |  | 
 |  |  |  | 15000 |  |  | Nc1ncnc2c1ncn2-c1ccccc1 |  |  |  |  |  | 
 |  |  |  | 2700 |  |  | Nc1ncnc2c1cnn2-c1ccccc1 |  |  |  |  |  | 

Compound | IC50 [1] [nM] | IC50 [2] [nM] | IC50 [3] [nM] | IC50 [4] [nM] | IC50 [6] [nM] | IC50 [7] [nM] | IC50 [8] [nM] | IC50 [5] [nM] | IC50 [9] [nM] | T/C [10] | T/C [11] [%] | T/C [12] [%] | IC50 [13] [nM]
Clc1cccc(Nc2[nH]cnc3nnc(-c4ccccc4)c2-3)c1 | 2800 | 30 |  | > 10000 | 19 | > 10000 | 3760 | 820 | > 10000 |  |  |  | 
Clc1cccc(Nc2[nH]nc3ncnc(NCc4ccccc4)c23)c1 | 9000 | 1500 | > 10000 | > 10000 | 870 | 4500 | > 10000 | 49900 |  |  |  |  | 
Cc1cccc(Nc2ncnc3[nH]nc(Nc4cccc(Cl)c4)c23)c1 |  | 150 |  | > 10000 | 130 | 4700 | 1650 | 2700 | 8080 | 21% and 23% | 44 | 27 | 
Nc1[nH]cnc2nnc(Nc3cccc(Cl)c3)c1-2 |  | 35000 | 6000 | > 10000 | 160 | 24000 | 410 | 14000 |  |  |  |  | 
Oc1cccc(Nc2[nH]nc3ncnc(Nc4cccc(Cl)c4)c23)c1 | 3000 | 4 | 220 | > 10000 | 1 | 560 | 260 | 460 |  |  |  |  | 
Nc1nc(N)c2c(Nc3cccc(Cl)c3)[nH]nc2n1 |  | 9000 | 6000 | > 10000 | 220 | 24000 | 410 | 2870 |  |  |  |  | 
Oc1ccc(Nc2[nH]nc3ncnc(Nc4cccc(Cl)c4)c23)cc1 | > 1000 | 40 | 400 | > 10000 | 8 | > 1000 | 150 | 1060 |  |  |  |  | 
COc1ccc(CNc2[nH]nc3ncnc(Nc4cccc(Cl)c4)c23)cc1 | 5000 | 20 | > 10000 | > 10000 | 7 | > 100000 | > 10000 | 860 |  |  |  |  | 
Oc1cccc(-c2[nH]nc3ncnc(Nc4cccc(Cl)c4)c23)c1 | 200 | 1500 | 2 | > 10000 | 26 | > 10000 | 180 | 990 |  |  |  |  | 
c1ccc(Nc2ncnc3n[nH]c(Nc4ccccc4)c23)cc1 |  | 12000 | 75000 | > 10000 | 58 | 6900 | 1960 | 8400 |  |  |  |  | 
Nc1ccc(-c2[nH]nc3ncnc(Nc4cccc(Cl)c4)c23)cc1 | 4500 | 800 | 4900 | > 10000 | 2 | 3600 | 3600 | 780 |  |  |  |  | 
Clc1cccc(Nc2ncnc3n[nH]c(Nc4cccc(Cl)c4)c23)c1 |  | 250 | 5300 | 10000 | 330 | 5900 | 1980 | 1400 |  | 25% and 31% | 41 | 46 | 
